This is an account of results in PMC10508631, “Development of an antibody fused with an antimicrobial peptide targeting Pseudomonas aeruginosa: A new approach to prevent and treat bacterial infections” (PLOS Pathogens, 2023).

One data set has as its system P. aeruginosa ATCC 27853. In kind it is cell-based, Pseudomonas aeruginosa. The settings on record: for MIC P. aeruginosa ATCC 27853: CLSI microdilution, 2-fold dilutions, ~5 x 10^5 cells/ml, 37°C, 18 hours, MIC = lowest concentration inhibiting growth by at least 80%. The procedure: (§1) All plates were placed at 37°C overnight.
The next data set has as its system P. aeruginosa ATCC 39324. It is filed as cell-based, Pseudomonas aeruginosa. The settings on record: for MIC P. aeruginosa ATCC 39324: CLSI microdilution, 2-fold dilutions, ~5 x 10^5 cells/ml, 37°C, 18 hours, MIC = at least 80% growth inhibition. As to the method: as §1
A further data set concerns 293T human cell line. Briefly: Mammalian cell cytotoxicity (CellTiter Glo). It is filed as cell-based. As to conditions: for Cytotox CC50: 293T cells, 10,000 cells/well, three days, 37°C, CellTiter Glo luminescence. As to the method: On day one, cells from an established 293T human cell line were seeded onto 96-well flat-bottom white plates (10,000 293T cells/well). On day two, dilution plates were prepared by diluting compound in cell growth medium to two times the final starting concentration and then carrying out serial two-fold dilutions across the plate. Medium from the cell growth assay plates was then aspirated, and 50 μl from the compound dilution plates were transferred to the assay plates. Fifty microliters of fresh media were then added to all the wells. The plates were incubated at 37°C, 5% CO2 for three days. […]. Media from the assay plates was aspirated, and 100 μl of CellTiter Glo/growth media mix was added to all wells. After five minutes, luminescence was read, and% inhibition vs. compound concentration was plotted.

A short description of a further data set: MIC in human serum. In kind it is cell-based. As to conditions: ratio to MIC, strain not given, NA = no activity in human serum.
A further data set deals with S. aureus 29213. The settings on record: for MIC S. aureus 29213: CLSI microdilution, 2-fold dilutions, ~5 x 10^5 cells/ml, 37°C, 18 hours, MIC = at least 80% growth inhibition. The procedure:
(§2) MICs and a killing assay were performed in this study. MICs were determined according to CLSI guidelines, using 2-fold serial compound dilutions in 96-well microtiter plates. Briefly, compounds were diluted in water across a mother plate and then 2 μl were stamped to assay plates—one plate for each strain to be tested. Bacterial strains were sub-cultured overnight on agar plates at 37°C. […] These concentrated cultures were diluted 1:200 in growth media to approximately 5 x 10^5 cells/ml. All assay plates received 100 μL diluted culture per well. All plates were placed at 37°C overnight. […] Wells at and above the MIC should appear devoid of growth when visualized.

The subject of a further data set is E. coli ATCC 25922. The settings on record: for MIC E. coli ATCC 25922: CLSI microdilution, 2-fold dilutions, ~5 x 10^5 cells/ml, 37°C, 18 hours, MIC = at least 80% growth inhibition. The procedure:
as §2

Data set [1] relates to red blood cells (defibrinated sheep's blood). The data set can be described thus: RBC hemolysis assay. In kind it is cell-based. The settings on record: RBCs. The procedure: Test substances were diluted 2-fold in water across a 96-well polypropylene mother plate, leaving one no-compound control. Two microliters from each well were stamped onto a 96-well polystyrene assay plate. A red blood cell suspension was made by mixing 0.2% defibrinated sheep’s blood (Hardy Diagnostics DSB100) in PBS. All assay plates received 100 μl/well of the red blood cell suspension. Plates were then incubated at 37°C overnight.

Another data set concerns P. aeruginosa BAA-2110. Briefly: Killing assay. In kind it is cell-based, Pseudomonas aeruginosa. As to conditions: third-generation cephalosporin-resistant strain; PBS + 1% BSA, 37°C, 90 minutes. As to the method:
(§3) Overnight plates were used to seed 30 ml cultures of growth media in 250 ml vented flasks. Cultures were grown aerobically at 37°C with shaking at 150 rpm. Growth was monitored at A600, and bacterial cells were harvested at mid-log growth. Ten milliliters of culture were pelleted at 4000 x g for 10 minutes and washed once with PBS + 1% BSA (PBSA) prior to resuspension in 2 ml of PBSA. The concentrated culture was used to seed 6 ml tubes of PBSA to an OD giving a concentration of 1 x 10^8 cells/ml. Cultures were diluted to 1 x10^4 cells/ml in PBSA. Test substances were diluted in PBSA, and 50 μL per concentration tested were loaded into a 96-well polypropylene microtiter plate. Fifty microliters of diluted culture were added to all test wells and all no-compound control wells. Plates were shaken and then incubated at 37°C for 90 minutes without shaking. Ten microliters from each assay well were plated onto agar plates and incubated at 37°C overnight. Percent killing was determined by the CFU for test wells vs. the CFU for no-compound control wells.

Another data set in a line: in vitro. The settings on record: human, normal human serum diluted in water.
The subject of data set [2] is P. aeruginosa ATCC 27853 and P. aeruginosa ATCC 39324. As to conditions: two ATCC strains of P. aeruginosa, CLSI. The procedure: as §2
For a further data set, the system named is P. aeruginosa. Briefly: Killing assay, strains not itemised. It is filed as cell-based, Pseudomonas aeruginosa. The settings on record: P. aeruginosa ATCC strains; 1 x10^4 cells/ml in PBS + 1% BSA, 37°C, 90 minutes, CFU plating; EC50 = lowest concentration causing > 50% colony reduction. The procedure: as §3
[3] abbreviates: molar equivalent of the MIC, unit not given.

In brackets after ≈: the same amount, converted by molar mass. Where a SMILES comes first, the peptide text is derived from it.

Description for in vitro: The supernatant was warmed to 37°C in a water bath. Twenty microliters of each test article were placed in a 2.0 ml round bottom microfuge tube. Two milliliters of diluted NHS were added to each tube, which was immediately vortexed, followed by transfer of 200 μl to a fresh microfuge tube placed at 37°C in a rotating rack.
Twenty microliters of each test article at 10 mg/ml were placed in a 2.0 mL round-bottomed microfuge tube. […] The tubes were immediately vortexed, and 200 μl were transferred to a fresh microfuge tube with 40 μl of 1% trichloroacetic acid (TCA). Assay tubes were placed at 37°C in a rotating rack. […] Supernatant from each tube was collected and frozen at -20°C for analysis. Mass spectrometry was used to quantify the percentage of test substance still intact.

For `CC(C)(O/N=C(\C(=O)N[C@@H]1C(=O)N2C(C(=O)[O-])=C(C[n+]3ccccc3)CS[C@H]12)c1csc(N)n1)C(=O)O` [Ceftazadime, reference compound], the “MIC P. aeruginosa ATCC 27853” value with P. aeruginosa ATCC 27853 stood at 1 µg/mL (≈ 1.83 µM). Moreover, the “MIC P. aeruginosa ATCC 27853, molar equivalents (number in parentheses)” value in the data set on P. aeruginosa ATCC 27853 (setting [3]) amounted to 1.8. The “MIC P. aeruginosa ATCC 39324” value in the data set on P. aeruginosa ATCC 39324 was 1 µg/mL (≈ 1.83 µM). Also, the “MIC P. aeruginosa ATCC 39324, molar equivalents (number in parentheses)” value with P. aeruginosa ATCC 39324 (setting [3]) is 1.8. Besides, in the data set with 293T human cell line, the “Cytotox CC50” value came to 550 µg/mL. Moreover, in “MIC in human serum”, the “Human Serum hsMIC/MIC” value is reported as 1. The “MIC S. aureus 29213” value against S. aureus 29213 was 4 µg/mL (≈ 7.32 µM). Further, in the data set on S. aureus 29213 (setting [3]), the “MIC S. aureus 29213, molar equivalents (number in parentheses)” value is 7.3. In the data set on E. coli ATCC 25922, the “MIC E. coli ATCC 25922” value is 0.25 µg/mL (≈ 0.457 µM). For the same molecule, the “MIC E. coli ATCC 25922, molar equivalents (number in parentheses)” value with E. coli ATCC 25922 (setting [3]) turned out to be 0.5.

Turning to `CC[C@@H](C)[C@@H](NC(=O)[C@H](NC(=O)[C@@H](CCCNC(=N)N)NC(=O)[C@H]1CCCN1C(=O)[C@@H](CCCCN)NC(=O)[C@@H](CCCCN)NC(=O)[C@@H](Cc1ccccc1)NC(=O)[C@@H](Cc1ccccc1)NC(=O)[C@@H](CCC(=O)O)NC(=O)[C@@H](CCCCN)NC(=O)[C@@H](C)NC(=O)[C@@H](CCCNC(=N)N)NC(=O)[C@@H](CCCCN)NC(=O)[C@@H](CCCCN)NC(=O)[C@H](NC(=O)[C@@H](CO)NC(=O)[C@@H](CCCCN)NC(=O)[C@@H](CCCCN)NC(=O)[C@@H](CC(C)C)NC(=O)[C@@H](CCCCN)NC(=O)[C@@H](CCCNC(=N)N)NC(=O)[C@@H](Cc1ccccc1)NC(=O)[C@@H](Cc1ccccc1)NC(=O)[C@@H](CCCCN)NC(=O)CNC(=O)CNC(=O)CN)C(C)C)C(C)C)C(=O)NCC(=O)N[C@@H](C(=O)N[C@H](CO)C(=O)N[C@@H](C(=O)N1CCC[C@@H]1C(=O)N[C@H](Cc1ccccc1)C(=O)O)[C@H](C)CC)C(C)C` [D297] (HELM PEPTIDE1{G.G.G.[dK].[dF].[dF].[dR].[dK].[dL].[dK].[dK].[dS].[dV].[dK].[dK].[dR].[dA].[dK].[dE].[dF].[dF].[dK].[dK].[dP].[dR].[dV].[dI].G.[dV].[dS].[dI].[dP].[dF]}$$$$V2.0), in the data set on 293T human cell line (mammalian cells / 293T), the “cytotoxic activity” value was “low”. For the same molecule, in data set [1], the “hemolytic activity” value was “low”.

With `CSCC[C@H](NC(=O)[C@H](CO)NC(=O)[C@H](C)NC(=O)[C@H](C)NC(=O)[C@H](C)NC(=O)[C@H](C)NC(=O)[C@H](C)NC(=O)[C@H](C)NC(=O)[C@H](C)NC(=O)[C@H](CC(N)=O)NC(=O)[C@H](C)NC(=O)[C@H](C)NC(=O)[C@@H](NC(=O)[C@H](CC(C)C)NC(=O)[C@H](C)NC(=O)[C@H](C)NC(=O)[C@H](C)NC(=O)[C@H](C)NC(=O)[C@H](C)NC(=O)[C@H](C)NC(=O)[C@H](CC(=O)O)NC(=O)[C@H](CO)NC(=O)[C@H](C)NC(=O)[C@@H](NC(=O)[C@H](Cc1c[nH]cn1)NC(=O)CNC(=O)CNC(=O)CN)[C@@H](C)O)[C@@H](C)O)C(=O)N[C@@H](C)C(=O)O` [P292] (H-GGGHTASDAAAAAALTAANAAAAAAASMA-OH), the “MIC P. aeruginosa ATCC 27853” value against P. aeruginosa ATCC 27853 is more than 128 µg/mL. Further, the “MIC P. aeruginosa ATCC 39324” value in the data set on P. aeruginosa ATCC 39324 was more than 128 µg/mL. Moreover, the “Cytotox CC50” value in the data set with 293T human cell line was determined as 250 µg/mL. For the same molecule, in the data set with S. aureus 29213, the “MIC S. aureus 29213” value was more than 128 µg/mL. Besides, the “MIC E. coli ATCC 25922” value in the data set with E. coli ATCC 25922 is more than 128 µg/mL.

Turning to `CC[C@H](C)[C@H](NC(=O)[C@@H](NC(=O)[C@H](CCCNC(=N)N)NC(=O)[C@@H]1CCCN1C(=O)[C@H](CCCCN)NC(=O)[C@H](CCCCN)NC(=O)[C@H](Cc1ccccc1)NC(=O)[C@H](Cc1ccccc1)NC(=O)[C@H](CCC(=O)O)NC(=O)[C@H](CCCCN)NC(=O)[C@H](C)NC(=O)[C@H](CCCNC(=N)N)NC(=O)[C@H](CCCCN)NC(=O)[C@H](CCCCN)NC(=O)[C@@H](NC(=O)[C@H](CO)NC(=O)[C@H](CCCCN)NC(=O)[C@H](CCCCN)NC(=O)[C@H](CC(C)C)NC(=O)[C@H](CCCCN)NC(=O)[C@H](CCCNC(=N)N)NC(=O)[C@H](Cc1ccccc1)NC(=O)[C@H](Cc1ccccc1)NC(=O)[C@H](CCCCN)NC(=O)CNC(=O)CNC(=O)CN)C(C)C)C(C)C)C(=O)NCC(=O)N[C@H](C(=O)N[C@@H](CO)C(=O)N[C@H](C(=O)N1CCC[C@H]1C(=O)N[C@@H](Cc1ccccc1)C(=O)O)[C@@H](C)CC)C(C)C` [P297] (H-GGGKFFRKLKKSVKKRAKEFFKKPRVIGVSIPF-OH), the “EC50 killing assay, BAA-2110” value in the data set with P. aeruginosa BAA-2110 fell in the range of 0.14 to 0.28 µg/mL. The “MIC P. aeruginosa ATCC 27853” value in the data set with P. aeruginosa ATCC 27853 came to 4 µg/mL (≈ 1.05 µM). In addition, the “MIC P. aeruginosa ATCC 39324” value in the data set on P. aeruginosa ATCC 39324 came out at 2 µg/mL (≈ 0.525 µM). Also, in the data set on 293T human cell line, the “cytotoxicity against 293T relative to the MIC” value is “approximately 200 fold” and the “Cytotox CC50” value amounted to 780 µg/mL. Also, the half-life at 0.099 mg/ml in “in vitro” is approximately 20 min. For the same molecule, in data set [2], the “MIC in an MIC assay” value lay within 2 to 4 µg/mL. Moreover, the “EC50 in the killing assay” value with P. aeruginosa fell in the range of 0.14 to 0.28 µg/mL.
